Results taken from US20110015080A1, “Solution-based methods for RNA expression profiling” (MASSACHUSETTS INSTITUTE OF TECHNOLOGY, priority 2005, published 2011).
“And” between values parts separate entries of the source, which are not always exact repeats. Equal entries are not always repeated.

Tested on: HL60 (human promyelocytic leukemia) cells
Test: LMA-FlexMAP bead-based gene expression signature analysis of total RNA from HL60 cells treated with tretinoin or DMSO (ninety transcripts); as to FlexMap GAPDH M LUA#94: test concentration or dose not given here; as to FlexMap NM 000147 LUA#29: test concentration or dose not given here; as to FlexMap NM 001948 LUA#84: test concentration or dose not given here
[1] = Experiment 2, Tretinoin, replicate columns

Compound: CC1=C(/C=C/C(C)=C/C=C/C(C)=C/C(=O)O)C(C)(C)CCC1 [tretinoin, all-trans-retinoic acid]
- NM_005952 LUA#66 FlexMAP signal (Experiment 1, tretinoin-treated HL60, transcript NM_005952, replicate columns): 172 and 212 and 149 and 198.5 and 72.5 and 189 and 203 and 95.5 and 188.5 and 182
- NM_005980 LUA#73 FlexMAP signal (Experiment 1, tretinoin-treated HL60, transcript NM_005980, replicate columns): 145 and 173 and 163 (2×) and 57 and 142 and 74 and 149.5 and 151
- NM_006019 LUA#35 FlexMAP signal (Experiment 1, tretinoin-treated HL60, transcript NM_006019, replicate columns): 746 and 867 and 569 and 818 and 186 and 828 and 762 and 287 and 767 and 734.5
- NM_006138 LUA#56 FlexMAP signal (Experiment 1, tretinoin-treated HL60, transcript NM_006138, replicate columns): 114 and 130 and 93 and 124 and 51.5 and 113.5 and 115.5 and 66 and 122 and 114.5
- NM_006432 LUA#27 FlexMAP signal (Experiment 1, tretinoin-treated HL60, transcript NM_006432, replicate columns): 1294.5 and 1495 and 1081.5 and 1409.5 and 397 and 1446 and 1405 and 625 and 1345 and 1203
- NM_006452 LUA#71 FlexMAP signal (Experiment 1, tretinoin-treated HL60, transcript NM_006452, replicate columns): 78.5 and 76 and 67.5 and 79.5 and 41 and 75 and 68 and 53.5 and 82 and 74
- NM_006985 LUA#58 FlexMAP signal (Experiment 1, tretinoin-treated HL60, transcript NM_006985, replicate columns): 52 and 54 and 47 and 59 and 37 and 55 and 56 and 40 and 57 and 51
- NM_007282 LUA#16 FlexMAP signal (Experiment 1, tretinoin-treated HL60, transcript NM_007282, replicate columns): 60.5 and 60 and 39 and 64.5 (2×) and 42.5 and 64 and 62 and 56 and 61
- NM_014333 LUA#26 FlexMAP signal (Experiment 1, tretinoin-treated HL60, transcript NM_014333, replicate columns): 472 and 584 and 366.5 and 531 and 134 and 492 and 530 and 197.5 and 497 and 459.5
- NM_014366 LUA#61 FlexMAP signal (Experiment 1, tretinoin-treated HL60, transcript NM_014366, replicate columns): 213 and 263 and 163 and 235 (2×) and 66 and 231 (2×) and 97 and 209.5
- NM_014573 LUA#70 FlexMAP signal (Experiment 1, tretinoin-treated HL60, transcript NM_014573, replicate columns): 135 and 155 (2×) and 99 and 153.5 and 61 and 138 and 79 and 138.5 and 144.5
- NM_015201 LUA#57 FlexMAP signal (Experiment 1, tretinoin-treated HL60, transcript NM_015201, replicate columns): 181 and 226.5 and 139 and 222 and 64 and 208 and 203 and 87 and 194.5 and 183
- NM_018115 LUA#63 FlexMAP signal (Experiment 1, tretinoin-treated HL60, transcript NM_018115, replicate columns): 506.5 and 644 and 552.5 and 735.5 and 143 and 690 and 601 and 227.5 and 582 and 418
- NM_018164 LUA#69 FlexMAP signal (Experiment 1, tretinoin-treated HL60, transcript NM_018164, replicate columns): 140.5 and 177 and 131 and 165 and 57 and 152.5 and 155 and 75 and 143 and 142
- NM_018256 LUA#83 FlexMAP signal (Experiment 1, tretinoin-treated HL60, transcript NM_018256, replicate columns): 1557 and 747 and 897 and 726 and 388 and 903 and 998 and 589 and 1256.5 and 1208
- NM_018890 LUA#33 FlexMAP signal (Experiment 1, tretinoin-treated HL60, transcript NM_018890, replicate columns): 705 and 824 and 537.5 and 758 and 187.5 and 788 and 743.5 and 293.5 and 719 and 712
- NM_019058 LUA#75 FlexMAP signal (Experiment 1, tretinoin-treated HL60, transcript NM_019058, replicate columns): 143.5 and 158 (2×) and 143 and 164 and 59 and 152 and 79.5 and 148.5 and 129
- NM_020117 LUA#78 FlexMAP signal (Experiment 1, tretinoin-treated HL60, transcript NM_020117, replicate columns): 527 and 607 and 408 and 584.5 and 145 and 554 and 564 and 230 and 529.5 and 519
- NM_021103 LUA#41 FlexMAP signal (Experiment 1, tretinoin-treated HL60, transcript NM_021103, replicate columns): 2412 and 2719 and 2257.5 and 2689 and 925 and 2668.5 and 2611 and 1370 and 2590 and 2454
- NM_021203 LUA#80 FlexMAP signal (Experiment 1, tretinoin-treated HL60, transcript NM_021203, replicate columns): 547 and 654 and 442.5 and 642.5 and 151 and 578.5 and 611 and 228.5 and 563 and 546
- NM_021974 LUA#64 FlexMAP signal (Experiment 1, tretinoin-treated HL60, transcript NM_021974, replicate columns): 1003 and 1158 and 872 and 1105 and 293.5 and 1102.5 and 1052.5 and 477.5 and 1068 and 955
- NM_024045 LUA#65 FlexMAP signal (Experiment 1, tretinoin-treated HL60, transcript NM_024045, replicate columns): 124 and 146 and 100 and 145 and 52 and 141 and 142 and 69 and 133 and 119
- TFRC LUA#92 FlexMAP signal (Experiment 1, tretinoin-treated HL60, transcript TFRC, replicate columns): 250 and 305 and 191.5 and 285 and 81.5 and 280.5 and 289 and 109 and 272 and 251.5
- FlexMap ACTB LUA#91 [1]: 2807 and 2986 and 107 and 2939 and 1020 and 2820 and 2870 and 2791 and 2727 and 2873.5
- FlexMap GAPDH_3 LUA#95 [1]: 3075 and 2896 and 139.5 and 2850 and 1137 and 3025 and 3066 and 2936 and 2973 and 3162.5
- FlexMap GAPDH_5 LUA#93 [1]: 1888 and 1977.5 and 72 and 1965.5 and 509 and 1847 and 2001 and 1834.5 and 1691 and 1994
- FlexMap GAPDH_M LUA#94 [1]: 1814 and 1595.5 and 73 and 1871 and 514 and 1911 and 2010.5 and 1693.5 and 1762.5 and 1932.5
- FlexMap NM_000147 LUA#29 [1]: 1102 and 1135 and 36 and 1106 and 236 and 1132 and 1122.5 and 1051 and 1086 and 1171
- FlexMap NM_000211 LUA#39 [1]: 1639.5 and 1219 and 89 and 1828 and 470 and 1717 and 1734.5 and 1593.5 and 1570 and 1763
- FlexMap NM_000250 LUA#87 [1]: 236 and 228 and 39 and 249 and 70 and 246 and 243 and 232 and 239.5 and 253
- FlexMap NM_000414 LUA#22 [1]: 564.5 and 544 and 34 and 547 and 115.5 and 596 and 561.5 and 550.5 and 543 and 598.5
- FlexMap NM_000433 LUA#28 [1]: 786.5 and 574 and 34 and 810 and 158 and 860 and 842 and 753 and 724 and 823
- FlexMap NM_000584 LUA#30 [1]: 2339.5 and 2517.5 and 72 and 2315 and 665 and 2389 and 2341.5 and 2247 and 2269 and 2450
- FlexMap NM_000884 LUA#81 [1]: 963.5 and 841 and 61 and 951 and 259.5 and 1004 and 988 and 925 and 916 and 1010
- FlexMap NM_001034 LUA#67 [1]: 260 and 246 and 32.5 and 280 and 65 and 281 and 253 and 271 and 252 and 276
- FlexMap NM_001101 LUA#34 [1]: 3017 and 2733 and 211 and 3046 and 1578 and 3029 and 3195 and 2934 and 2997 and 3139.5
- FlexMap NM_001469 LUA#79 [1]: 1315 and 1107 and 73 and 1230 and 333.5 and 1437 and 1331.5 and 1308 and 1281.5 and 1360
- FlexMap NM_001498 LUA#18 [1]: 494.5 and 511 and 32 and 521 and 110.5 and 507.5 and 513 and 441.5 and 467 and 531.5
- FlexMap NM_001684 LUA#23 [1]: 71 and 75 and 30 and 98 and 38.5 and 66 and 79 and 68 and 77.5 and 83
- FlexMap NM_001948 LUA#84 [1]: 72 and 70 and 33 and 79.5 and 40 and 68 (2×) and 70.5 and 62 and 81
- FlexMap NM_002166 LUA#25 [1]: 227 and 254.5 and 30 and 237 and 60 and 230 and 240 and 221 and 242
- FlexMap NM_002467 LUA#90 [1]: 741 and 823 (2×) and 762.5 and 205 and 792 and 798 and 776 and 759
- FlexMap NM_002468 LUA#40 [1]: 531.5 and 584 and 35 and 511 and 135 and 556.5 and 549 and 498 and 494 and 589.5
- FlexMap NM_002539 LUA#74 [1]: 416 and 397 and 33 and 437 and 89 and 423 and 409 and 392 and 368 and 441
- FlexMap NM_002624 LUA#36 [1]: 1647.5 and 1643 and 71 and 1714 and 670 and 1664 and 1757 and 1580.5 and 1616 and 1772.5
- FlexMap NM_002664 LUA#38 [1]: 2701.5 and 2723 and 91 and 2815 and 1002 and 2840.5 and 2805 and 2642 and 2652 and 2875
- FlexMap NM_002970 LUA#42 [1]: 1716.5 and 1563 and 42 and 1624 and 435.5 and 1759.5 and 1743 and 1655.5 and 1575 and 1823
- FlexMap NM_002982 LUA#45 [1]: 3697 and 3859 and 294 and 3328 and 2094 and 3522 and 3632 and 3562 and 3485 and 3768
